Results published in US9782368B2, “Use of N,N-bis-2-mercaptoethyl isophthalamide” (EMERAMED LIMITED, priority 2014, dated 2017).
Where two headings read alike, the source gives them in different places.

What was measured:
[1] = Ascorbate depletion assay, 9,10-PQ-sponsored oxidation, recycling of DHA; details: 9,10-PQ model, 200 μM added at 60 minutes
Method: The kinetics of ascorbate oxidation, sponsored by both 1 μM 9,10-PQ and 2 μM copper sulphate (CuSO4), was examined using the ascorbate depletion assay (Kelly et al, Res. Rep. Health Eff. Inst., 163, 3 (2011). 9,10-PQ was employed so that the action of NBMI could be examined in isolation of its chelation properties.
All experiments were performed in triplicate in UV 96 well flat-bottomed plates (Greiner bio-one) at a final volume of 200 μL. Exposures were initiated by the addition of 20 μL of a concentrated stock of ascorbate (2 mM) into each well containing 160 μL of Chelex-100 resin treated water (containing 10% DMSO), plus either 10 μL of water, CuSO4 stock solution at 4 mM or 9,10-PQ stock solution at 2 mM, and 10 μL of NMBI (4 mM and […]).
All solutions were prepared in Chelex-100 resin treated water (containing 10% DMSO). This yielded final concentrations in the wells of […], 2 μM CuSO4, or 1 μM 9,10-PQ and between 10 and 200 μM of NBMI.
Immediately prior to the addition of the ascorbate to each assay well, the plate was pre-incubated for 10 minutes at 37° C. in a plate reader (Spectra Max 190). During the exposure, the plate was maintained at this temperature. After addition of ascorbate, the concentration remaining in each well was monitored every 2 minutes for a period of two hours by measuring the absorbance at 265 nm. The ascorbate concentration was determined with reference to a standard curve, with the rate of ascorbate oxidation determined by performing a linear regression through the initial part of a concentration verses time plot using Microcal Software Limited's OriginLab (version 5.0). This was performed for each of the triplicates and the rate of ascorbate depletion was finally expressed as mean mol s 1×10^−9 depletion of ascorbate±standard deviation.
For the experiments in which the impact of adding NBMI to the ascorbate was measured, CuSO4 and 9,10-PQ depletion assays were examined later in the time course. The plates were ran with 190 μL only for the first 55-60 minutes, after which they were removed from the plate reader and 10 μL of either the NMBI or the known reducing agent, DTT stock solution, or water was added to each well. The plate was then returned to the plate reader and the absorbance at 265 nm monitored for a further 60 minutes.
The immediate increase in the measured ascorbate concentrations was determined and is referred to as the ‘jump’, as a measure of immediate recycling capacity. The sustained ‘increase’ over the remaining 60 minutes of the incubation was also determined.

[2] = system: cigarette smoke (CS)-induced airway disease; type: in vivo, BALB/c mice; details: for weight gained compared to start weight: CS-exposed
Method: The 14 day dose-finding study was therefore followed by a 90 day study using essentially the same apparatus and protocol described in Example 4 above. On this occasion, the 5 treatment groups were as follows: • 1. Daily exposure to clean air (Placebo Group; Gr. 1) • 2. Daily exposure to CS (CS-Exposed Placebo Group; Gr. 2) • 3. Daily exposure to CS; treated with NBMI at a 30 mg/kg dose (NBMI 30 mg/kg Group; Gr. 3) • 4. Daily exposure to CS; treated with NBMI at a 60 mg/kg dose (NBMI 60 mg/kg Group; Gr. 4) • 5. Daily exposure to CS; treated with NBMI at a 150 mg/kg dose (NBMI 150 mg/kg Group; Gr. 5) On Day 91, animals were weighed and anesthetised with pentobarbital sodium (90 mg/kg body weight, i.p.). Mice were tracheotomised with an 18-gauge cannula and mechanically ventilated in a quasi-sinusoidal fashion with a small animal ventilator (flexiVent™, SCIREQ®) at a frequency of 3 Hz and a tidal volume (VT) of 12 ml/kg body weight. A positive end-expiratory pressure of 3 cm H2O was applied. The animal's cardiac output was monitored throughout the respiratory mechanics assessment. Mice were paralysed with pancuronium (0.1 mg/kg body weight, i.p. (local suppliers)) before 4 sigh manoeuvres at 3×VT were performed at the beginning of the experiment to establish stable baseline respiratory mechanics and to ensure a similar volume history before the experiment. Dynamic lung mechanics were measured by applying a sinusoidal standardised breath and analysed using the single compartment model and multiple linear regression, giving respiratory resistance (RRS), elastance (ERS) and compliance (CRS). The measurement of RRS reflects both narrowing of the conducting airways and alterations in the lung. The measurement of CRS and ERS reflects only events in the lung periphery, particularly airway closure leading to lung unit de-recruitment. By contrast, a selective change in CRS is indicative of a more distal site of action. More thorough evaluations of lung mechanics were made using forced oscillation technique (FOT) according to Jonasson et al., Respir. Res., 9, 23 (2008) and Respir. Physiol. Neurobiol., 165, 229 (2009). The parameters obtained from the FOT measurements in this study were: Newtonian resistance (RN), tissue damping (G), which is closely related to tissue resistance and reflects energy dissipation in the lung tissues; and tissue elastance (H), which characterises tissue stiffness and reflects energy storage in the tissues. Dynamic pressure-volume (PV) curves were determined by inflating the lungs to a maximum pressure of 30 cm H2O, allowing passive exhalation using the computer-controlled Flexivent ventilator for measuring volume and pressure. Individual results from each animal were compiled. All PV-measurements were performed in triplicate. Quasi-static PV loops were obtained by a slow stepwise inflation and deflation of the lungs. PV loops were performed for PEEP-levels, 3 cm H2O. The shape factor (k) of the descending limb of the PV loop was calculated by fitting the data to the Salazar-Knowles equation. The value of the parameter k is believed to change characteristically with both fibrosis and emphysema. The quasi-static compliance (Cst) and elastance (Est) and the volume air inspired sufficient to reach 20 cm water were also obtained. Bronchoalveolar lavage (BAL) was carried out essentially as described in Example 4 above, as was flow cytometry analysis of cells from BAL and analysis of inflammatory mediators in BAL and serum. Frozen lung tissue was homogenised together with 1 mL PBS in a 2 mL tube, using a mixer mill (Retch mm400) for 2 minutes at 4° C. Immediately after homogenisation, the tube was centrifuged for 15 minutes (1500 rpm, 4° C.). The supernatant was removed and saved for protein concentration determination using a NanoDrop spectrophotometer (Proteins A280). After analysing the protein content, equal amounts of protein from each sample were saved for the transforming growth factor beta (TGFβ) 1-3 analysis. […]

O=C(NCCS)c1cccc(C(=O)NCCS)c1 [NBMI, N,N-bis-2-mercaptoethyl isophthalamide]
immediate rebound increase in ascorbate [1]: 42.8 µM | rate of ascorbate oxidation after addition [1]: reduced relative to the first 60 minute period | respiratory function (PV-curves) vs placebo group Gr. 2 ([2]; 30, 60 and 150 mg/kg): did not display significantly changed respiratory function | macrophages in BAL fluid ([2]; 30, 60 and 150 mg/kg, Day 90): did not have significantly lower numbers of macrophages | weight gained compared to start weight ([2]; Day 90, Gr. 3, 30 mg/kg): 1.0 ± 0.4 g | weight gained compared to start weight ([2]; Day 90, Gr. 4, 60 mg/kg): 0.7 ± 0.2 g | weight gained compared to start weight ([2]; Day 90, Gr. 5, 150 mg/kg): 0.6 ± 0.2 g | percentage of T helper (CD4+/CD3+) and T cytotoxic (CD8+/CD3+) lymphocytes in BAL fluid ([2]; FACS, NBMI-treated groups): not significant altered | neutrophils in BAL fluid ([2]; Gr. 4, 60 mg/kg): tendency to a lower number of neutrophils | neutrophils in BAL fluid ([2]; Gr. 5, 150 mg/kg): tendency to a lower number of neutrophils | GM-CSF level in serum vs Gr. 2 ([2]; Gr. 5, 150 mg/kg, p<0.01): lowered | MIP-1β level in serum vs Gr. 2 ([2]; Gr. 5, 150 mg/kg, p<0.05): lowered | T cytotoxic (CD8+/CD3+) lymphocytes in BAL fluid vs Gr. 2 ([2]; NBMI-treated animals): significant decrease | lymphocytes in BAL fluid (tendency) ([2]; all NBMI-treated groups): a lower number of lymphocytes | TGFβ1-3 in lung homogenate vs Gr. 2 ([2]; animals receiving NBMI): did not have significantly changed amount
